Measurements reported in US20050187239A1 (priority 2002, published 2005).

Tested on: Male CD-1 mice
Details: mouse, in vivo

| SMILES | interaction with a fixed dose of L-methadone (FIG. 1A) (sc) | ED50 Value, Combination (Total Drug Dose), Additive (predicted) [mg/kg s.c.] | ED50 Value, Combination (Total Drug Dose), Observed [mg/kg s.c.] | ED50 Value, Drug alone | isobolographic analysis: combination with methadone versus composite additive line (FIG. 3) | further results |
| --- | --- | --- | --- | --- | --- | --- |
| COc1ccc2c3c1O[C@H]1C(=O)CC[C@@]4(O)[C@@H](C2)N(C)CC[C@]314 [oxycodone] | additive interactions |  |  |  |  |  |
| COc1ccc2c3c1O[C@H]1[C@@H](O)C=C[C@H]4[C@@H](C2)N(C)CC[C@@]341 [Codeine, codeine] | greater than additive responses | 2.79 ± 0.22 | 0.74 ± 0.10 | 3.7 ± 0.4 mg/kg s.c. | significantly greater than the composite additive line |  |
| CCOC(=O)C1(c2ccccc2)CCN(C)CC1 [meperidine] | additive interactions |  |  |  |  |  |
| CCC(=O)C(C[C@H](C)N(C)C)(c1ccccc1)c1ccccc1 [D-Methadone, D-methadone] |  |  |  | >>4 mg/kg s.c. |  | analgesic effect alone: did not show any effects alone; effect on morphine responses when given together (FIG. 2): did not influence morphine responses |
| CCC(=O)C(C[C@@H](C)N(C)C)(c1ccccc1)c1ccccc1 [L-Methadone, L-methadone] |  |  |  | 1.9 ± 0.2 mg/kg s.c. |  | ED80 dose: 4 mg/kg s.c.; effect on morphine responses when given together (FIG. 2): did reveal synergy; interaction with morphine (FIG. 1B) (sc): greater than additive interactions |
| CN1CC[C@]23c4c5ccc(O)c4O[C@H]2C(=O)CC[C@@]3(O)[C@H]1C5 [oxymorphone] | additive interactions |  |  |  |  |  |
| CN1CC[C@]23c4c5ccc(O)c4O[C@H]2[C@@H](O)C=C[C@H]3[C@H]1C5 [Morphine, morphine] | greater than the sum of their independent actions | 3.11 ± 0.32 | 0.83 ± 0.12 | 4.7 ± 1.1 mg/kg s.c. | significant greater than the composite additive line | analgesic activity of the combination versus additivity (FIG. 4): significantly greater than additive |
| CN1CC[C@]23c4c5ccc(O)c4O[C@H]2[C@@H](O[C@@H]2O[C@H](C(=O)O)[C@@H](O)[C@H](O)[C@H]2O)C=C[C@H]3[C@H]1C5 [M6G, morphine-6β-glucuronide] | greater than the sum of their independent actions | 2.80 ± 0.21 | 1.03 ± 0.34 | 3.7 ± 0.4 mg/kg s.c. | significantly greater than the composite additive line |  |
